Measured values reported in patent US20200297684A1, “TOPICAL COMPOSITIONS AND METHODS FOR TREATING ACNE VULGARIS” (Bausch Health Ireland Limited, priority 2019, published 2020).
“And” between values parts separate entries of the source, which are not always exact repeats. Equal values may be shown once.

What was measured:
[1] = equal parts of 0.05% tretinoin gel and gel containing 5% BPO and clindamycin phosphate; 32° C. for 7 hours; cited from earlier work
[2] = Chemical stability of tretinoin in an admixture with benzoyl peroxide at room condition and 32° C., under room light; assay type: physicochemical; details: for Assay (% label claim), 32° C., Room Light / Assay (% label claim), Room Condition: tretinoin in admixture with benzoyl peroxide
Experimental: The chemical stability of tretinoin in an admixture with benzoyl peroxide of the present invention at room temperature and 32 degrees C., under room light condition is shown in Table 1.
More than 97 and 96 percent of treinoin in the original admixture of the present invention remains after 24 hours at room condition and 32° C., under room light, respectively. Such stability ensures that the therapeutic efficacy of tretinoin is not diminished between once-a-day applications.

[3] = time 0 hr, replicates top/middle/bottom

SMILES: CC1=C(/C=C/C(C)=C/C=C/C(C)=C/C(=O)O)C(C)(C)CCC1 [Tretinoin, tretinoin]
- stability of tretinoin in the mixture [1]: stable
- time for which tretinoin in the admixture is chemically stable ([2]; admixture of tretinoin and benzoyl peroxide compositions, even at 32° C. under room light condition): at least 24 hours
- percent of tretinoin in the original admixture remaining ([2]; after 24 hours at 32° C., under room light): > 96%
- percent of tretinoin in the original admixture remaining ([2]; after 24 hours at room condition): More than 97%
- Assay (% label claim), 32° C., Room Light [2, 3]: 98.8 % label claim and 97.1 % label claim and 98.3 % label claim
- Assay (% label claim), Room Condition [2, 3]: 98.8 % label claim and 97.1 % label claim and 98.3 % label claim
- Assay (% label claim), 32° C., Room Light ([2]; time 1 hr): 98.5 % label claim and 97.1 % label claim
- Assay (% label claim), Room Condition ([2]; time 1 hr): 96.8 % label claim and 97.2 % label claim
- Assay (% label claim), Room Condition ([2]; time 3 hr): 97.8 % label claim and 97.5 % label claim
- Assay (% label claim), 32° C., Room Light ([2]; time 4 hr): 98.6 % label claim and 98.2 % label claim
- Assay (% label claim), Room Condition ([2]; time 5 hr): 97.0 % label claim and 97.3 % label claim
- Assay (% label claim), Room Condition ([2]; time 8 hr): 99.5 % label claim
- Assay (% label claim), 32° C., Room Light ([2]; time 12 hr): 98.9 % label claim and 97.0 % label claim
- Assay (% label claim), Room Condition ([2]; time 12 hr): 97.3 % label claim and 97.8 % label claim
- Assay (% label claim), 32° C., Room Light ([2]; time 24 hr): 96.6 % label claim and 97.8 % label claim
- Assay (% label claim), Room Condition ([2]; time 24 hr): 98.1 % label claim and 97.4 % label claim
